Non-standard residues stand in square brackets, D forms with d. Nle = CCCC[C@H](N)C(=O)O
Tests used:
Type in all cases: cell-based, human
melanocytes strain 105c = test: cAMP levels, radioimmunoassay; details: 45 min, 0.1 mM IBMX
Description: Dose-response experiments were carried out on three melanocytic strains, namely strains 1513c, 1505b and 105c melanocytes were treated with 1 pM-10 nM CUV9900 or NDP-MSH, or with 0.1-10 nM MSH for 45 minutes in the presence of 0.1 mM isobutyl methylxanthine (IBMX). The results obtained from strain 1513c are shown in Fig. 3, the results obtained from strain 1505b are shown in Fig. 5a and the results obtained from strain 105c are shown in Fig. 5b. The strains 1505b and 1513c were obtained from the same human adult while the strain 105c was obtained from another human adult.
Cyclic AMP is the second messenger for the melanocortin-1 receptor, and assessment is usually performed indicating cellular activity reflective of melanogenesis. Cyclic AMP levels were determined using ^125I-labeled radioimmunoassay kit (Perkin Elmer, Waltham, MA), in human melanocytes that were treated with 0 (control), 0.1-10.0 nM α-MSH, or 0.001-10 nM NDP-MSH or 0.001-10.0 nM CUV 9900 for 45 min. in the presence of 0.1 mM IBMX, a phosphodiesterase inhibitor to prevent cAMP degradation. Triplicate wells were included in each group, and duplicate samples from each well were assayed for cAMP levels. Each data point is the mean percent of control of 6 determinations/group ±S.E.

[1] = test system: melanocytic strain 1505b and melanocytic strain 10.3c; test: UV-induced generation of hydrogen peroxide, luminol luminescence; details: 1 nM; for UV-induced hydrogen peroxide generation: 105 mJ/cm^2 UV, 0, 30 and 45 minutes after UV irradiation
From the text: (§1) With reference to Figs. 10 and 11, melanocytes were irradiated with a bank of FS 20 lamps, with 75% emission in the UVB, and 25% emission in the UVA spectra, with peak emission at 313 nm wavelength. Any emission of UVC rays from the UV source (FS 20 lamps) was blocked by Kodacel filter. Prior to irradiation, the culture medium was replaced by PBS, which was removed after UV exposure, and fresh medium added.
(§2) Melanocytes were irradiated with 105 mJ/cm^2 UV, and treated immediately while in PBS with 0, 1 nM α-MSH or 1 nM CUV9900. Generation of hydrogen peroxide, representative of reactive oxygen species (ROS), was determined by measuring the luminescence of luminol at 0, 30, and 45 min after UV exposure. Triplicate dishes were included in each group, and duplicate samples from each dish were used for measurement of hydrogen peroxide at each time point. Each data point represents the mean of 6 determinations/group ±S.E.

[2] = test system: melanocytic strains 1563c and 102b; test: Ultrastructural visualization of DOPA-stained HM, electron microscopy; details: 0.1 nM or 1 nM CUV9900 or 1 nM MSH
Description: (§3) With reference to Figs. 14 and 15, two melanocytic strains, a lightly pigmented strain 1563c of Fig. 14 and strain 102b of Fig. 15 were plated in 4-well chamber slides and treated […] with either 0.1 nM or 1 nM CUV9900 or 1 nM MSH for a total of 6 days. Cells were processed for electron microscopy in the presence or absence of histochemical reaction with DOPA. Microtome sections were analyzed in a JEOL JEM-1230 transmission electron microscope and photomicrographs (15,000 X) of the perinuclear area and dendrites were taken for each experimental group.

melanocytic strain 1505b = test: UV-induced generation of hydrogen peroxide (luminol luminescence); details: strain 1505b; 1 nM; 105 mJ/cm^2 UV; 0, 30 and 45 minutes after UV
From the text: as §1, §2

melanocytic strain 10.3c = test: as above; details: 1 nM, 105 mJ/cm^2 UV, 0, 30 and 45 minutes after UV
From the text: as §1, §2

melanocyte strain 1513c = test: Tyrosinase activity as a measure of stability / residual effect; details: strain 1513c; 1 nM peptide incubated 5-7 hours at 37 degrees Celsius
Description: To determine the residual effect of CUV9900, as compared to NDP-MSH and α-MSH, on tyrosinase activity, melanocytes were treated with either CUV9900 or NDP-MSH at the concentrations previously described for a total of 3 days. Tyrosinase activity was measured at the end of the 3 days of treatment, and 2 and 4 days after maintenance of the melanocytes in the complete absence of any treatment. With continued reference to Figs. 7, 8 and 9, to determine the stability of CUV9900 versus that of NDP-MSH and α-MSH, melanocytes were treated with 1 nM of each peptide, namely with CUV9900, NDP-MSH and α-MSH, for a total of 6 days, or with 1 nM peptides that were incubated for 5 hours at 37 °C prior to addition to the cultures, every other day, for a total of 6 days. Tyrosinase activity was measured at the end of treatment. In the experiments, cell number represents the mean percent of control of 3 determinations/ group ±SE, and tyrosinase activity data represent the mean percent of control of 6 determinations ±S.E. It should be noted that for the sake of reproducibility the experiment of strain 1513c of Fig. 9 was performed once more 6 months later than the experiment of Fig. 7. […] Melanocytes were treated for 3 days with the designated concentrations of CUV9900, NDP-MSH, or MSH, then maintained in absence of peptides for 4 days. Tyrosinase activity was determined 3 days after treatment. Comparison of stability of CUV9900, NDP-MSH and MSH was compared in 1513c, as shown in Fig. 7; the strain was treated for 6 days with 1 nM CUV9900, NDP-MSH or MSH with fresh medium and peptide replenished every 2 days. Melanocytes were treated according to the same experiment protocol but each peptide was incubated for 5-7 hours at 37 degrees Celsius. […] The assessment of tyrosinase was statistically different from control, as determined by ANOVA (p=<0.05).

[3] = test system: lightly pigmented strain 1563c and strain 102b; test: Ultrastructural visualization of DOPA-stained HM (electron microscopy); details: 0.1 nM or 1 nM CUV9900 or 1 nM MSH; strains 1563c and 102b
Description: as §3

| Substance | elevation of cAMP in comparison to NDP (melanocytes strain 105c; 0.01 nM and 0.1 nM) | cAMP compared with MSH (melanocytes strain 105c; 0.1 nM, 1 nM and 10 nM) | UV-induced hydrogen peroxide generation [1] | hydrogen peroxide generation in comparison with both NDP-MSH and MSH ([1]; at 45 minutes after irradiation) | melanosomes in the perinuclear area and dendrites [2] | UV-induced hydrogen peroxide generation (melanocytic strain 1505b) | UV-induced hydrogen peroxide generation (melanocytic strain 10.3c) | effect of incubation of the peptide on stimulation of tyrosinase activity (melanocyte strain 1513c) | melanosomes, electron microscopy [3] |
| --- | --- | --- | --- | --- | --- | --- | --- | --- | --- |
| Ac-Nle-Glu His-D-Phe-Arg-Trp-NH2 (SEQ ID NO: 1) (Ac-[Nle]EH[dF]RW-NH2; SMILES CCCC[C@H](NC(C)=O)C(=O)N[C@@H](CCC(=O)O)C(=O)N[C@@H](Cc1c[nH]cn1)C(=O)N[C@H](Cc1ccccc1)C(=O)N[C@@H](CCCNC(=N)N)C(=O)N[C@@H](Cc1c[nH]c2ccccc12)C(N)=O) [CUV9900] | less elevation of cAMP | significantly higher | significant reduction | lower hydrogen peroxide generation | increased mature (stage IV) melanosomes |  |  |  |  |
| Ac-Ser-Tyr-Ser-Met-Glu-His-Phe-Arg-Trp-Gly-Lys-Pro-Val-NH2 (SEQ ID NO: 3) [alpha-MSH, reference compound] |  |  | significant reduction |  | increased mature (stage IV) melanosomes |  |  |  |  |
| Ac-Ser-Tyr-Ser-Met-Glu-His-Phe-Arg-Trp-Gly-Lys-Pro-Val-NH2 [alpha-MSH, reference compound] |  |  |  |  |  | significant reduction of UV-induced hydrogen peroxide generation | significant reduction of UV-induced hydrogen peroxide generation | totally abolished its effect on tyrosinase activity | increased mature (stage IV) melanosomes in the perinuclear area and more so in dendrites |

Source: patent EP2487185A1, “Hexapeptide with improved activity in the repair of cellular DNA of dermal cells” (Clinuvel Pharmaceuticals Limited, priority 2011, dated 2012)
